Source: PubChem BioAssay (NCI)
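Exposure lasted 48 hours, with cells grown in 96-well plates and compounds tested at five concentrations. Here, GI50 denotes the concentration required for 50% inhibition of growth. At the TGI there is no net growth.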

Tests used:
Test in all cases: growth of human tumour cells (NCI), 48 h
[1] = tested on: M14 melanoma
[2] = tested on: OVCAR-8 ovarian
[3] = tested on: CAKI-1 renal
[4] = tested on: HCC-2998 colon
[5] = tested on: 786-0 renal
[6] = tested on: SW-620 colon
[7] = tested on: SN12C renal
[8] = tested on: IGROV1 ovarian
[9] = tested on: SK-MEL-2 melanoma
[10] = tested on: PC-3 prostate

CN(C)CCN1C(=O)c2cccc3c(-c4ccc5ncn(C6CCCCC6)c5c4)ccc(c23)C1=O
GI50 [1]: 1.7 µM | TGI [1]: 3.61 µM | GI50 [2]: 1.21 µM | TGI [2]: 9.76 µM | GI50 [3]: 1.27 µM | TGI [3]: 6.67 µM | GI50 [4]: 1.82 µM | TGI [4]: 4.3 µM | GI50 [5]: 1.59 µM | TGI [5]: 12.2 µM | GI50 [6]: 1.06 µM | TGI [6]: 11 µM | GI50 [7]: 1.03 µM | TGI [7]: 12.1 µM | GI50 [8]: 1.12 µM | TGI [8]: 5.86 µM | GI50 [9]: 2.19 µM | TGI [9]: 7.32 µM | GI50 [10]: 1.63 µM | TGI [10]: 5.75 µM

Clc1ccc2c(NCCN3CCN(c4ccnc(N5CCCC5)n4)CC3)ccnc2c1
GI50 [1]: 1.91 µM | TGI [1]: 3.61 µM | GI50 [2]: 4.39 µM | TGI [2]: 18.5 µM | GI50 [3]: 2.69 µM | TGI [3]: 10.3 µM | GI50 [4]: 1.94 µM | TGI [4]: 4.08 µM | GI50 [5]: 3.32 µM | TGI [5]: 11.1 µM | GI50 [6]: 2.05 µM | TGI [6]: 4.31 µM | GI50 [7]: 4.86 µM | TGI [7]: 19.1 µM | GI50 [8]: 4.48 µM | TGI [8]: 23.7 µM | GI50 [9]: 2.61 µM | TGI [9]: 6.77 µM | GI50 [10]: 5.97 µM | TGI [10]: 20.8 µM

COc1cc2c(cc1-c1c(C)noc1C)ncc1[nH]c(=O)n([C@H](C)c3ccccn3)c12
GI50 [1]: 3.19 µM | TGI [1]: > 100 µM | GI50 [2]: 3.54 µM | TGI [2]: > 100 µM | GI50 [3]: 0.0939 µM | TGI [3]: > 100 µM | GI50 [4]: 2.5 µM | TGI [4]: 17.8 µM | GI50 [5]: 5.04 µM | TGI [5]: > 100 µM | GI50 [6]: 28.1 µM | TGI [6]: > 100 µM | GI50 [7]: 4.48 µM | TGI [7]: > 100 µM | GI50 [8]: 0.765 µM | TGI [8]: > 34.2 µM | GI50 [9]: 6.07 µM | TGI [9]: 77.6 µM | GI50 [10]: 2.72 µM | TGI [10]: > 100 µM

C/C=C/COc1cc(NC(=S)c2ccoc2C)ccc1OC
TGI [1]: > 100 µM | TGI [2]: > 100 µM | TGI [3]: > 100 µM | TGI [4]: > 100 µM | TGI [5]: > 100 µM | TGI [6]: > 100 µM | TGI [7]: > 100 µM | TGI [8]: > 100 µM | TGI [9]: > 100 µM | TGI [10]: > 100 µM

COc1ccc(Cn2c3c(c4c(O)cccc42)C(=O)c2ccccc2-3)cc1
GI50 [1]: 14.4 µM | TGI [1]: 38 µM | GI50 [2]: 3.08 µM | TGI [2]: 13.2 µM | GI50 [3]: 14.9 µM | TGI [3]: 29.6 µM | GI50 [4]: 8.26 µM | TGI [4]: 21.7 µM | GI50 [5]: 4.02 µM | TGI [5]: 16.7 µM | GI50 [6]: 12.6 µM | TGI [6]: 36.9 µM | GI50 [7]: 15.6 µM | TGI [7]: 29 µM | GI50 [8]: 11.2 µM | TGI [8]: > 100 µM | GI50 [9]: 18.2 µM | TGI [9]: 45.9 µM | GI50 [10]: 12.8 µM | TGI [10]: 25.4 µM

c1ccc([P+](CCC[P+](c2ccccc2)(c2ccccc2)c2ccccc2)(c2ccccc2)c2ccccc2)cc1
GI50 [1]: 27.6 µM | TGI [1]: > 100 µM | GI50 [2]: 10.5 µM | TGI [2]: > 100 µM | TGI [3]: > 100 µM | TGI [4]: > 100 µM | TGI [5]: > 100 µM | GI50 [6]: 15 µM | TGI [6]: > 100 µM | GI50 [7]: 19.6 µM | TGI [7]: > 100 µM | GI50 [8]: 14 µM | TGI [8]: > 100 µM | GI50 [9]: 8.44 µM | TGI [9]: 40 µM | GI50 [10]: 3.26 µM | TGI [10]: 81.1 µM

CCN1CCN(c2cc(C)nc(NCc3cc(Nc4ccnc5cc(Cl)ccc45)ccc3F)n2)CC1
GI50 [1]: 1.72 µM | TGI [1]: 3.4 µM | GI50 [2]: 4.11 µM | TGI [2]: > 100 µM | GI50 [3]: 2.82 µM | TGI [3]: 17.1 µM | GI50 [4]: 2.59 µM | TGI [4]: 31.3 µM | GI50 [5]: 2.07 µM | TGI [5]: 5.88 µM | GI50 [6]: 2.32 µM | TGI [6]: 15.1 µM | GI50 [7]: 4.48 µM | TGI [7]: 27 µM | GI50 [8]: 3.31 µM | TGI [8]: 34.1 µM | GI50 [9]: 2.53 µM | TGI [9]: 6.52 µM | GI50 [10]: 5.02 µM | TGI [10]: 69.5 µM

C[C@@H]1CCC2[C@@H](C)[C@H](OC(=O)CCC(=O)NCCNC(=O)Cc3cc(=O)oc4cc(N(C)C)ccc34)O[C@@H]3O[C@]4(C)CC[C@@H]1C23OO4 (some centres not stated)
GI50 [1]: 2.13 µM | TGI [1]: > 74.5 µM | GI50 [2]: 0.906 µM | TGI [2]: > 47.8 µM | GI50 [3]: 2.64 µM | TGI [3]: > 25.6 µM | GI50 [4]: 6.85 µM | TGI [4]: > 100 µM | GI50 [5]: 4.24 µM | TGI [5]: 65.2 µM | GI50 [6]: 0.457 µM | TGI [6]: 20.8 µM | GI50 [7]: 4.04 µM | TGI [7]: > 100 µM | GI50 [8]: 2.55 µM | TGI [8]: 17.7 µM | GI50 [9]: 5.4 µM | TGI [9]: > 43.7 µM | GI50 [10]: 0.189 µM | TGI [10]: > 100 µM

O=C(Nn1c2c(sc1=NC1CC1)C(=O)c1ccccc1C2=O)c1cc2ccc1CCc1ccc(cc1)CC2
GI50 [1]: 1.33 µM | TGI [1]: 2.83 µM | GI50 [2]: 2.62 µM | TGI [2]: 11.6 µM | GI50 [3]: 2.48 µM | TGI [3]: 14.9 µM | GI50 [4]: 2.34 µM | TGI [4]: 6.67 µM | GI50 [5]: 2.75 µM | TGI [5]: 7.93 µM | GI50 [6]: 1.92 µM | TGI [6]: 4.32 µM | GI50 [7]: 1.34 µM | TGI [7]: 2.61 µM | GI50 [8]: 1.16 µM | TGI [8]: 4.74 µM | GI50 [9]: 2.47 µM | TGI [9]: 7.25 µM | GI50 [10]: 1.62 µM | TGI [10]: 10.7 µM

Cc1[nH]ccc2cc3nc4ccccc4c3cc12
GI50 [1]: 2.47 µM | TGI [1]: 11.1 µM | GI50 [2]: 1.72 µM | TGI [2]: 11.7 µM | GI50 [3]: 2.38 µM | TGI [3]: 10.8 µM | GI50 [4]: 2.85 µM | TGI [4]: 13.3 µM | GI50 [5]: 3.33 µM | TGI [5]: 13.8 µM | GI50 [6]: 1.07 µM | TGI [6]: 6.9 µM | GI50 [7]: 2.55 µM | TGI [7]: 12.5 µM | GI50 [8]: 3.65 µM | TGI [8]: 15.2 µM | GI50 [9]: 5.17 µM | TGI [9]: 16.5 µM | GI50 [10]: 2.46 µM | TGI [10]: 11.7 µM

C=CC1=C(C)C(Cc2[nH]c(/C=c3\[nH]/c(=C/C4=NC(=O)C(C)/C4=C\C)c(C)c3CCC(=O)O)c(CCC(=O)OC)c2C)NC1=O (configuration not stated)
GI50 [1]: 28.3 µM | TGI [1]: 89.5 µM | GI50 [2]: 34.9 µM | TGI [2]: > 100 µM | GI50 [3]: 46.3 µM | TGI [3]: > 100 µM | GI50 [4]: 26.7 µM | TGI [4]: 67.1 µM | GI50 [5]: 22 µM | TGI [5]: 62.5 µM | GI50 [6]: 25.4 µM | TGI [6]: 61.4 µM | GI50 [7]: 22.2 µM | TGI [7]: 44.6 µM | GI50 [8]: 18.8 µM | TGI [8]: 42.4 µM | GI50 [9]: 20.1 µM | TGI [9]: 39.4 µM | GI50 [10]: 32.9 µM | TGI [10]: > 100 µM

O=C1/C(=C/c2ccc(C(F)(F)F)cc2)COc2ccc(O)cc21
GI50 [1]: 3.24 µM | TGI [1]: 10.6 µM | GI50 [2]: 3.26 µM | TGI [2]: 11.1 µM | GI50 [3]: 1.74 µM | TGI [3]: 3.85 µM | GI50 [4]: 1.57 µM | TGI [4]: 2.93 µM | GI50 [5]: 1.91 µM | TGI [5]: 4.17 µM | GI50 [6]: 1.71 µM | TGI [6]: 3.4 µM | GI50 [7]: 1.73 µM | TGI [7]: 3.46 µM | GI50 [8]: 1.6 µM | TGI [8]: 3.17 µM | GI50 [9]: 9.43 µM | TGI [9]: 21.9 µM | GI50 [10]: 1.89 µM | TGI [10]: 4.17 µM
